Measured values: ChEMBL document CHEMBL2407067, “Pyridone-conjugated monobactam antibiotics with gram-negative activity” (J Med Chem, 2013)
Values after ≈ are worked out from the molar mass of the structure shown.

Assays:
Klebsiella pneumoniae [1] = assay: Antibacterial activity against Klebsiella pneumoniae expressing ESBL by broth microdilution method; type: functional
Pseudomonas aeruginosa [2] = assay: microbe, parasite or virus in culture; settings: 1091-05
Description: Antibacterial activity against Pseudomonas aeruginosa 1091-05 by broth microdilution method

Klebsiella pneumoniae [3] = assay: Antibacterial activity against Klebsiella pneumoniae 1487-07 by broth microdilution method; type: functional
Acinetobacter sp. = assay: Antibacterial activity against Acinetobacter spp. by broth microdilution method; type: functional
Klebsiella pneumoniae [4] = assay: Antibacterial activity against Klebsiella pneumoniae expressing KPC by broth microdilution method; type: functional
Pseudomonas aeruginosa [5] = assay: Antibacterial activity against Pseudomonas aeruginosa expressing metallo-beta-lactamase by broth microdilution method; type: functional
Acinetobacter baumannii = assay: Antibacterial activity against Acinetobacter baumannii AB-3167 by broth microdilution method; type: functional
Escherichia coli [6] = assay: Antibacterial activity against Escherichia coli expressing ESBL by broth microdilution method; type: functional
Escherichia coli [7] = assay: Antibacterial activity against Escherichia coli expressing CTX-M by broth microdilution method; type: functional
Escherichia coli [8] = assay: Antibacterial activity against Escherichia coli expressing defined beta-lactamase by broth microdilution method; type: functional
Pseudomonas aeruginosa [9] = assay: Antibacterial activity against Pseudomonas aeruginosa from cystic fibrosis patients by broth microdilution method; type: functional
Klebsiella pneumoniae [10] = assay: Antibacterial activity against Klebsiella pneumoniae expressing defined beta-lactamase by broth microdilution method; type: functional
Klebsiella pneumoniae [11] = assay: Antibacterial activity against Klebsiella pneumoniae 1000-02 by broth microdilution method; type: functional
Pseudomonas aeruginosa [12] = assay: Antibacterial activity against Pseudomonas aeruginosa 1042-06 by broth microdilution method; type: functional
[13] = Inhibition of PBP1a in Pseudomonas aeruginosa ATCC 27853 after 20 mins by fluorescence assay
[14] = Inhibition of PBP3 in Pseudomonas aeruginosa ATCC 27853 after 20 mins by fluorescence assay
[15] = Inhibition of PBP2 in Pseudomonas aeruginosa ATCC 27853 after 20 mins by fluorescence assay
[16] = Inhibition of PBP1b in Pseudomonas aeruginosa ATCC 27853 after 20 mins by fluorescence assay

Row | Compound | MIC (Pseudomonas aeruginosa [2]) [µg/mL] | MIC (Klebsiella pneumoniae [3]) [µg/mL] | MIC (Acinetobacter baumannii) [µg/mL] | MIC (Klebsiella pneumoniae [11]) [µg/mL] | MIC (Pseudomonas aeruginosa [12]) [µg/mL] | also measured
1 | CO/N=C(\C(=O)N[C@@H]1C(=O)N2C(C(=O)[O-])=C(C[N+]3(C)CCCC3)CS[C@H]12)c1csc(N)n1 | 2 (≈ 4.16 µM) | > 64 | 2 (≈ 4.16 µM) |  |  | MIC50 (Klebsiella pneumoniae [1]): 8 µg/mL (≈ 16.6 µM); MIC90 (Klebsiella pneumoniae [1]): > 64 µg/mL; MIC50 (Acinetobacter sp.): 8 µg/mL (≈ 16.6 µM); MIC90 (Acinetobacter sp.): > 64 µg/mL; MIC50 (Klebsiella pneumoniae [4]): > 64 µg/mL; MIC90 (Klebsiella pneumoniae [4]): > 64 µg/mL; MIC50 (Pseudomonas aeruginosa [5]): > 64 µg/mL; MIC90 (Pseudomonas aeruginosa [5]): > 64 µg/mL; MIC50 (Escherichia coli [6]): 64 µg/mL (≈ 133 µM); MIC90 (Escherichia coli [6]): > 64 µg/mL; MIC50 (Escherichia coli [7]): 64 µg/mL (≈ 133 µM); MIC90 (Escherichia coli [7]): > 64 µg/mL; MIC50 (Escherichia coli [8]): 0.25 µg/mL (≈ 0.52 µM); MIC90 (Escherichia coli [8]): 4 µg/mL (≈ 8.32 µM); MIC50 (Pseudomonas aeruginosa [9]): 8 µg/mL (≈ 16.6 µM); MIC90 (Pseudomonas aeruginosa [9]): > 64 µg/mL; MIC50 (Klebsiella pneumoniae [10]): 4 µg/mL (≈ 8.32 µM); MIC90 (Klebsiella pneumoniae [10]): > 64 µg/mL
2 | CC(C)(O/N=C(\C(=O)N[C@@H]1C(=O)N(S(=O)(=O)O)[C@@H]1CNC(=O)c1cccc(O)c1O)c1csc(N)n1)C(=O)O | 16 (≈ 27.3 µM) | 64 (≈ 109 µM) | 16 (≈ 27.3 µM) | 64 (≈ 109 µM) | 32 (≈ 54.6 µM) | 
3 | CC(C)(O/N=C(\C(=O)N[C@@H]1C(=O)N(S(=O)(=O)O)[C@@H]1CNC(=O)c1[nH]ccc(=O)c1O)c1csc(N)n1)C(=O)O | 32 (≈ 54.5 µM) | 64 (≈ 109 µM) | 32 (≈ 54.5 µM) | 32 (≈ 54.5 µM) | > 64 | 
4 | NCCO/N=C(\C(=O)N[C@@H]1C(=O)N(S(=O)(=O)O)[C@@H]1CNC(=O)NCc1cc(=O)c(O)cn1O)c1csc(N)n1 | 4 (≈ 6.78 µM) | > 64 | 4 (≈ 6.78 µM) | > 64 | > 64 | 
5 | CC(C)(O/N=C(\C(=O)N[C@@H]1C(=O)N(S(=O)(=O)O)[C@@H]1CNC(=O)c1cc(=O)c(O)c[nH]1)c1csc(N)n1)C(=O)O | 0.125 (≈ 0.213 µM) |  | 0.125 (≈ 0.213 µM) | 0.5 (≈ 0.851 µM) | 0.5 (≈ 0.851 µM) | 
6 | COn1cc(O)c(=O)cc1C(=O)NC[C@@H]1[C@H](NC(=O)/C(=N\OC(C)(C)C(=O)O)c2csc(N)n2)C(=O)N1S(=O)(=O)O | 1 (≈ 1.62 µM) | 8 (≈ 13 µM) | 1 (≈ 1.62 µM) | 1 (≈ 1.62 µM) | 4 (≈ 6.48 µM) | 
7 | Cn1cc(O)c(=O)cc1C(=O)NC[C@@H]1[C@H](NC(=O)/C(=N\OC(C)(C)C(=O)O)c2csc(N)n2)C(=O)N1S(=O)(=O)O | 4 (≈ 6.65 µM) | 4 (≈ 6.65 µM) | 4 (≈ 6.65 µM) |  | 4 (≈ 6.65 µM) | 
8 | CC(C)(O/N=C(\C(=O)N[C@@H]1C(=O)N(S(=O)(=O)O)[C@@H]1CNC(=O)c1cc(=O)c(O)cn1CC(=O)O)c1csc(N)n1)C(=O)O | 1 (≈ 1.55 µM) | 4 (≈ 6.2 µM) | 1 (≈ 1.55 µM) | 0.25 (≈ 0.387 µM) | 2 (≈ 3.1 µM) | 
9 | CC(C)(O/N=C(\C(=O)N[C@@H]1C(=O)N(S(=O)(=O)O)[C@@H]1CNC(=O)c1cc(=O)c(O)cn1-c1ccccc1)c1csc(N)n1)C(=O)O | 32 (≈ 48.2 µM) | 16 (≈ 24.1 µM) | 32 (≈ 48.2 µM) | 1 (≈ 1.51 µM) | 32 (≈ 48.2 µM) | IC50 [13]: 0.58 µM; IC50 [14]: 0.14 µM; IC50 [15]: > 300 µM; IC50 [16]: 7.4 µM
10 | CNn1cc(O)c(=O)cc1C(=O)NC[C@@H]1[C@H](NC(=O)/C(=N\OC(C)(C)C(=O)O)c2csc(N)n2)C(=O)N1S(=O)(=O)O | 2 (≈ 3.24 µM) | 8 (≈ 13 µM) | 2 (≈ 3.24 µM) | 0.5 (≈ 0.811 µM) | 8 (≈ 13 µM) | 
11 | CC(C)(O/N=C(\C(=O)N[C@@H]1C(=O)N(S(=O)(=O)O)[C@@H]1CNC(=O)c1cc(=O)c(O)co1)c1csc(N)n1)C(=O)O | 8 (≈ 13.6 µM) | 64 (≈ 109 µM) | 8 (≈ 13.6 µM) | 32 (≈ 54.4 µM) | 64 (≈ 109 µM) | 
12 | Nc1nc(/C(=N/OC2(C(=O)O)CCCC2)C(=O)N[C@@H]2C(=O)N(S(=O)(=O)O)[C@@H]2CNC(=O)NCc2cc(=O)c(O)cn2O)cs1 | 0.25 (≈ 0.38 µM) | 0.5 (≈ 0.759 µM) | 0.125 (≈ 0.19 µM) | 0.25 (≈ 0.38 µM) | 1 (≈ 1.52 µM) | 
13 | Nc1nc(/C(=N/OC2(C(=O)O)CCCCC2)C(=O)N[C@@H]2C(=O)N(S(=O)(=O)O)[C@@H]2CNC(=O)NCc2cc(=O)c(O)cn2O)cs1 | 1 (≈ 1.49 µM) | 4 (≈ 5.95 µM) |  |  | 8 (≈ 11.9 µM) | 
14 | Nc1nc(/C(=N/OCCCC(=O)O)C(=O)N[C@@H]2C(=O)N(S(=O)(=O)O)[C@@H]2CNC(=O)NCc2cc(=O)c(O)cn2O)cs1 | 0.5 (≈ 0.79 µM) | > 64 | 0.5 (≈ 0.79 µM) | 32 (≈ 50.6 µM) | 8 (≈ 12.6 µM) | 
15 | CC(C)(O/N=C(\C(=O)N[C@@H]1C(=O)N(S(=O)(=O)O)[C@@H]1CNC(=O)NCc1cc(=O)c(O)cn1O)c1csc(N)n1)C(=O)NO | 1 (≈ 1.54 µM) | 16 (≈ 24.7 µM) | 1 (≈ 1.54 µM) | 8 (≈ 12.4 µM) | > 64 | IC50 [13]: 3.02 µM; IC50 [14]: 0.27 µM; IC50 [15]: > 300 µM; IC50 [16]: 11.1 µM
